Reference: patent US8669256B2, “Substituted thieno[2,3-b]pyrazine compounds as modulators of B-Raf kinase activity” (Merck Sharp & Dohme B.V., priority 2010, dated 2014)
Like-named read-outs stand apart in the source and are kept apart here.

Tests used:
[1] = molecular target: T1, GST-tagged human recombinant active B-Raf (Δ1-415) (Homo sapiens, UniProt P15056); assay: B-Raf kinase activity, IMAP coupled assay (B-Raf/MEK1/ERK2, fluorescence polarization); type: biochemical; conditions: bounds also given as pIC50 (>6, >7, >8); 60 min pre-incubation with compound, ATP 50 μM; read-out: IC50, B-Raf IMAP assay
T1 construct: GST; purchased Upstate/Millipore
From the text: (§1) In another assay the B-Raf kinase activity can be determined by using an IMAP assay (Immobilized Metal Assay for Phosphochemicals-based coupled assay). IMAP is a homogeneous fluorescence polarization (FP) assay based on affinity capture of phosphorylated peptide substrates. IMAP uses fluorescein-labeled peptide substrates that, upon phosphorylation by a protein kinase, bind to so called IMAP nanoparticles, which are derivatized with trivalent metal complexes. Such binding causes a change in the rate of the molecular motion of the peptide, and results in an increase in the FP value observed for the fluorescein label attached to the substrate peptide. In such an assay, B-Raf phosphorylates unactive MEK1. The phosphorylated MEK1 is capable of phosphorylating ERK2, which subsequently phosphorylates the fluorescein-labeled peptide substrate.
Determination of B-Raf Kinase Activity using an IMAP Assay
as §1, with “Inhibition of” for “In another assay the”, “was measured” for “can be determined by”, “Immobilized” for “IMAP assay (Immobilized”, “assay (IMAP).” for “assay).”, “this” for “such an”
Enzymes, substrate and ATP were diluted at all steps in Kinase Reaction buffer (10 mM Tris-HCl, 10 mM MgCl2, 0.01% Tween-20, 0.05% NaN3 pH 7.2, 1 mM DTT). The final volume at the kinase reaction step of the assay in the 384-well plate was 20 μl. The concentrations within brackets are final concentrations in the assay. B-Raf (GST-tagged human recombinant active B-Raf (Δ1-415), Upstate/Millipore; 0.2 U/ml) was pre-incubated with compounds or DMSO (1% final concentration) for 60 minutes at room temperature in the dark. Thereafter, MEK 1 (GST-tagged human recombinant unactive MEK1 (full-length); 64 ng/ml), ERK2 (GST-tagged human recombinant unactive ERK2 (full-length); 600 ng/ml), peptide substrate (Erktide, Molecular Devices; 50 nM) and ATP (50 μM) were added to the wells and the mix was incubated for another 60 minutes at 30° C. in the dark. Then, IMAP progressive binding buffer (75% 1× buffer A, 25% 1× buffer B, 1:900 Progressive Binding Reagent; Molecular Devices) was added followed by an incubation step of 60 minutes at room temperature in the dark. Finally, the FP signal was read on an Envision Multilabel reader (Perkin Elmer).

[2] = system: phosphorylation of ERK1/2 in A375 cells containing mutant B-Raf (V600E); assay: Phospho-ERK FACE assay in A375 (B-Raf mutated) melanoma cell line; type: cell-based; conditions: Homo sapiens, A-375, A375 cells, 2 hours incubation, read-out: IC50, A375 melanoma phospho-ERK assay
Experimental: The B-Raf activity can also be determined in a B-Raf mutated melanoma cell line, such as the A375 cell line. Inhibition of phosphorylation of ERK1/2 can be measured using a Fast Activated Cell-based ELISA (FACE) from Active Motif (Carlsbad, U.S.A., CA). E.g. A375 cells, which are cells containing a mutant form of B-Raf (V600E) and thus contain high levels of phosphorylated ERK, can be incubated with Raf inhibitors. Then cells can be incubated with anti-phospho-ERK antibody and subsequently with horse radish peroxidase (HRP)-labeled secondary antibody. Finally, chemiluminescence reagents can be added, which react with HRP, to give a luminescence signal.
Determination of B-Raf Activity Using a A375 (B-Raf mutated) Melanoma Cell Line (Phospho-ERK FACE Assay)
Inhibition of phosphorylation of ERK1/2 was measured using a Fast Activated Cell-based ELISA (FACE) from Active Motif (Carlsbad, U.S.A., CA). Briefly, A375 cells, which are cells containing a mutant form of B-Raf (V600E) and thus contain high levels of phosphorylated ERK, were incubated for 2 hours with Raf inhibitors. Then, cells were fixed with paraformaldehyde, washed and following quenching and blocking, incubated with anti-phospho-ERK antibody, and as a control, on a separate plate, with ERK antibody. After washing and removal of the primary antibodies, the fixed cells were incubated with horse radish peroxidase (HRP)-labeled secondary antibody. Finally, chemiluminescence reagents were added, which react with HRP, to give a luminescence signal.
Detailed protocol: A375 cells were cultured in DMEM/F12 (Dulbecco's Modified Eagle Medium Nutrient Mixture F-12) (Invitrogen), supplemented with 10% fetal bovine serum (FBS) (Biowhittaker), 100 U/ml penicillin G and 100 μg/ml streptomycin (Gibco). For the phospho ERK assay, cells were seeded at a density of 15,000 cells/well in 100 μl culture medium in 96-well plates and incubated in a humidified atmosphere at 5% CO2 and 37° C. After 24 hours, cells were washed with DMEM/F12 supplemented with 0.1% FBS (assay medium 120 μl of assay medium was added and the plates were incubated overnight in a humidified atmosphere at 5% CO2 and 37° C. The next day, the assay medium was removed and compounds diluted in assay medium were added to the cells. Final DMSO concentration in the assay was 1%. After 2 hours incubation, cells were fixed by replacing the assay medium with 100 μl of 4% formaldehyde (Bio-Connect, Huissen, The Netherlands) in PBS. After 20 minutes of incubation at room temperature, cells were washed three times with 200 μl wash buffer (0.1% (vol/vol) Triton X-100 in PBS from the FACE kit) followed by an incubation of 20 minutes with 100 μl quenching buffer, containing 1% (vol/vol) hydrogen peroxide (Thermo Fisher Scientific) and 0.1% (vol/vol) sodium azide (Sigma-Aldrich) in phosphate-buffered saline. Cells were washed two times with wash buffer, incubated for 1 hour with 100 μl antibody blocking buffer from the kit and washed two times again. 40 μl of diluted antibody against phosphorylated ERK1/2 (1:500 from the FACE kit) was added and incubated overnight at 4° C. The phospho-ERK antibody has been raised against a synthetic phospho-peptide corresponding to residues Thr202 and Tyr204 of human ERK1 and Thr185 and Tyr187 of human ERK2. For the detection of total ERK, antibody against ERK1 and ERK2 (1:500 from the FACE kit) was added. The excessive primary antibody was washed out, and 100 μl diluted HRP-conjugated anti-rabbit IgG (1:2000 from the FACE kit) was added and incubated for 1 hour at room temperature. Secondary antibody was removed and cells were washed 3 times with wash buffer and twice with PBS. 50 μl per well of FACE chemiluminescent working solution was added. Chemiluminescence was measured on an Envision Multilabel reader.

[3] = class between 10 μM and 1 μM (5<pIC50<6)
[4] = between 1 μM and 100 nM (6<pIC50<7)
[5] = class given as below 100 nM (pIC50>7)

T1 sequence (P15056 416-766, stated change not applied): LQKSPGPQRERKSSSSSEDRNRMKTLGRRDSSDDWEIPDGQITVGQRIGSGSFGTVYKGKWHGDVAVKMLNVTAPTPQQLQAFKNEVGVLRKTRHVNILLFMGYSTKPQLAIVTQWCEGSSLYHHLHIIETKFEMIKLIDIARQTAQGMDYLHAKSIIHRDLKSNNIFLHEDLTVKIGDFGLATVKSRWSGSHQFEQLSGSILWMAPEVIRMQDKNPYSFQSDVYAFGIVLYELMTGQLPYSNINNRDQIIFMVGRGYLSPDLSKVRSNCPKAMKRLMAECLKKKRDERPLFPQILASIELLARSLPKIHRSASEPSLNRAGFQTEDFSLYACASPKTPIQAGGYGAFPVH

SMILES	IC50 [1]	IC50 [2, 3]	IC50 [2, 4]	IC50 [2, 5]
Cc1ccc(NC(=O)c2ccc(F)c(C(F)(F)F)c2)cc1NC(=O)c1cc2nccnc2s1 [Example 37, N-(5-(4-fluoro-3-(trifluoromethyl)benzamido)-2-methylphenyl)thieno[2,3-b]pyrazine-6-carboxamide]	< 100 nM	1000 to 10000 nM		
Cc1cnc2sc(C(=O)Nc3cc(NC(=O)c4cccc(C(C)(C)C#N)c4)ccc3C)cc2n1 [Example 24, N-(5-(3-(2-cyanopropan-2-yl)benzamido)-2-methylphenyl)-2-methylthieno[2,3-b]pyrazine-6-carboxamide]	< 10 nM		100 to 1000 nM	
Cc1ccc(NC(=O)c2cccc(C3(C#N)CC3)c2)cc1NC(=O)c1cc2nccnc2s1 [Example 29, N-(5-(3-(1-cyanocyclopropyl)benzamido)-2-methylphenyl)thieno[2,3-b]pyrazine-6-carboxamide]	< 10 nM		100 to 1000 nM	
Cc1ccc(NC(=O)c2cccc(C(C)(C)C#N)c2)cc1NC(=O)c1cc2nc(NC(C)C)cnc2s1 [Example 16, N-(5-(3-(2-cyanopropan-2-yl)benzamido)-2-methylphenyl)-2-(isopropylamino)thieno[2,3-b]pyrazine-6-carboxamide]	< 100 nM			< 100 nM
CNc1cnc2sc(C(=O)Nc3cc(NC(=O)c4cccc(C(C)(C)C#N)c4)ccc3C)c(N)c2n1 [Example 6, 7-amino-N-(5-(3-(2-cyanopropan-2-yl)benzamido)-2-methylphenyl)-2-(methylamino)thieno[2,3-b]pyrazine-6-carboxamide]	< 10 nM			< 100 nM
Cc1ccc(NC(=O)c2cccc(C(F)(F)F)c2)cc1NC(=O)c1cc2nc(-c3cccnc3)cnc2s1 [Example 53, N-(2-methyl-5-(3-(trifluoromethyl)benzamido)phenyl)-2-(pyridin-3-yl)thieno[2,3-b]pyrazine-6-carboxamide]	< 100 nM		100 to 1000 nM	
COCCNc1cnc2cc(C(=O)Nc3cc(NC(=O)c4cccc(C(C)(C)C#N)c4)ccc3C)sc2n1 [Example 65, N-(5-(3-(2-cyanopropan-2-yl)benzamido)-2-methylphenyl)-3-(2-methoxyethylamino)thieno[2,3-b]pyrazine-6-carboxamide]	< 10 nM		100 to 1000 nM	
Cc1ccc(NC(=O)c2cccc(C(C)(C)C#N)c2)cc1NC(=O)c1cc2nc(NCCN(C)C)cnc2s1 [Example 14, N-(5-(3-(2-cyanopropan-2-yl)benzamido)-2-methylphenyl)-2-(2-(dimethylamino)ethylamino)thieno[2,3-b]pyrazine-6-carboxamide]	< 100 nM	1000 to 10000 nM		
Cc1ccc(NC(=O)c2cc(F)cc(C(F)(F)F)c2)cc1NC(=O)c1cc2nccnc2s1 [Example 32, N-(5-(3-fluoro-5-(trifluoromethyl)benzamido)-2-methylphenyl)thieno[2,3-b]pyrazine-6-carboxamide]	< 100 nM	1000 to 10000 nM		
CNc1c(C(=O)Nc2cc(NC(=O)c3cccc(C(C)(C)C#N)c3)ccc2C)sc2nccnc12 [Example 2, N-(5-(3-(2-cyanopropan-2-yl)benzamido)-2-methylphenyl)-7-(methylamino)thieno[2,3-b]pyrazine-6-carboxamide]	< 10 nM			< 100 nM
COc1ccc(C(=O)Nc2ccc(C)c(NC(=O)c3cc4nccnc4s3)c2)cc1C(F)(F)F [Example 28, N-(5-(4-methoxy-3-(trifluoromethyl)benzamido)-2-methylphenyl)thieno[2,3-b]pyrazine-6-carboxamide]	< 100 nM		100 to 1000 nM	
Cc1ccc(NC(=O)c2cccc(C(C)(C)C#N)c2)cc1NC(=O)c1cc2ncc(-c3ccncc3)nc2s1 [Example 69, N-(5-(3-(2-cyanopropan-2-yl)benzamido)-2-methylphenyl)-3-(pyridin-4-yl)thieno[2,3-b]pyrazine-6-carboxamide]	< 10 nM			< 100 nM
Cc1ccc(NC(=O)Nc2cccc(C(C)(C)C#N)c2)cc1NC(=O)c1cc2nccnc2s1 [Example 40, N-(5-(3-(3-(2-cyanopropan-2-yl)phenyl)ureido)-2-methylphenyl)thieno[2,3-b]pyrazine-6-carboxamide]	< 100 nM	1000 to 10000 nM		
CC(C)(C#N)c1cccc(C(=O)Nc2cc(NC(=O)c3cc4nccnc4s3)c(F)cc2F)c1 [Example 55, N-(5-(3-(2-cyanopropan-2-yl)benzamido)-2,4-difluorophenyl)thieno[2,3-b]pyrazine-6-carboxamide]	< 100 nM	1000 to 10000 nM		
Cc1ccc(NC(=O)c2cccc(C(F)(F)F)c2F)cc1NC(=O)c1cc2nccnc2s1 [Example 38, N-(5-(2-fluoro-3-(trifluoromethyl)benzamido)-2-methylphenyl)thieno[2,3-b]pyrazine-6-carboxamide]	< 100 nM		100 to 1000 nM	
Cc1ccc(NC(=O)c2cccc(C(C)(C)C#N)c2)cc1NC(=O)c1cc2nc(NCc3ccncc3)cnc2s1 [Example 18, N-(5-(3-(2-cyanopropan-2-yl)benzamido)-2-methylphenyl)-2-(pyridin-4-ylmethylamino)thieno[2,3-b]pyrazine-6-carboxamide]	< 10 nM		100 to 1000 nM	
